These results are taken from patent publication US20230414826A1, “FIBRIN HYDROGELS” (Mayo Foundation for Medical Education and Research, priority 2020, published 2023).

For this assay, the target named is T1, fibrin gels (Homo sapiens, UniProt P02671+P02675+P02679).
T1 sequence (P02671 20-644 isoform P02671-2 limits assumed): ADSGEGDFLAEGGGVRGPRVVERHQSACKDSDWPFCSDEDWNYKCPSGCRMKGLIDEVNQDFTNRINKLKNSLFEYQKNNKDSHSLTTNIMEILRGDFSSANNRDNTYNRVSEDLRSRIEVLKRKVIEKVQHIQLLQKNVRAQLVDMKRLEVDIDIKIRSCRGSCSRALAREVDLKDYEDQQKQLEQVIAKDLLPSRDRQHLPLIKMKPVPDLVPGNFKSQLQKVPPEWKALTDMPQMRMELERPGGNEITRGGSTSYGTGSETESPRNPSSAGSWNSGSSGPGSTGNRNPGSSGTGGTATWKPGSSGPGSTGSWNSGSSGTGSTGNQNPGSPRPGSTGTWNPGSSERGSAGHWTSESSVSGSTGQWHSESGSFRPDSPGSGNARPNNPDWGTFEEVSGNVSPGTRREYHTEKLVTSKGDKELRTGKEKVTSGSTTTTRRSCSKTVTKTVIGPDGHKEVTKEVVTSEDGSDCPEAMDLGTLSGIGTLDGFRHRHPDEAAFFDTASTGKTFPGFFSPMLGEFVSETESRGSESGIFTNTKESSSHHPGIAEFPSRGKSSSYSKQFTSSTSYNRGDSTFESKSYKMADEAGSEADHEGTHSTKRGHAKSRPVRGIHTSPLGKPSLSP
T1 sequence (P02675 45-491 limits assumed): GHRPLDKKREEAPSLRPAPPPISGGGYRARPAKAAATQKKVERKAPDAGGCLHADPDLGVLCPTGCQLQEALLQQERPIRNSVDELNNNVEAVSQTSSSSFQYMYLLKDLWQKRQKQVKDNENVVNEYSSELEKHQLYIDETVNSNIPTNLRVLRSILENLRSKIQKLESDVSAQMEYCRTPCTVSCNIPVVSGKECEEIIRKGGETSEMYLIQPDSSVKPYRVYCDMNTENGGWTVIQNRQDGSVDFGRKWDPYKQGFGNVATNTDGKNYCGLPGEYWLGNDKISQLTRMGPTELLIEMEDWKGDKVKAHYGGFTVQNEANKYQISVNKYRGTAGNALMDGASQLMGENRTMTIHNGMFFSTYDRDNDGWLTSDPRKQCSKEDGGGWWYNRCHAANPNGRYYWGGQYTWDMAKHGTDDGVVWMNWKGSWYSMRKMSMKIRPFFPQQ
T1 sequence (P02679 27-437 isoform P02679-2 limits assumed): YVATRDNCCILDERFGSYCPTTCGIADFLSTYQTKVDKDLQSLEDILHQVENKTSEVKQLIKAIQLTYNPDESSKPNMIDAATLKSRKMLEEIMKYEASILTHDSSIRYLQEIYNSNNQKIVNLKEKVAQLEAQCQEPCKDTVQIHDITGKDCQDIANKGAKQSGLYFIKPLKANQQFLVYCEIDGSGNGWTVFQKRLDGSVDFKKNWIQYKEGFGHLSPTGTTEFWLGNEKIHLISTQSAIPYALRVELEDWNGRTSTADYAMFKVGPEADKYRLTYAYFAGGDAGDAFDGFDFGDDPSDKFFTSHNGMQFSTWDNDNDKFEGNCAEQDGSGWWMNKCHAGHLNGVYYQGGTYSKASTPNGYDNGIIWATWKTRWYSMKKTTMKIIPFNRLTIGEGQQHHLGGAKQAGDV
The assay can be described thus: Fibrin gel degradation with plasminogen and tissue plasminogen activator, thickness by OCT. As to conditions: 1.6 U/mL plasminogen and 17,000 U/mL tPA in PBS, 37° C., gels with 0.12% dye, n=3. Here is the method:
Fibrin gels were cast as described in the Electron Microscopy section above and hydrated in PBS. A punch was used to generate 5.0 mm×1.5 mm gels. The measured thickness of all the gels was 309±69 μm.
The fibrin gels were then submerged in a PBS solution with 1.6 U/mL plasminogen (Sigma-Aldrich; St Louis, MO) and 17,000 U/mL tissue plasminogen activator (Sigma-Aldrich) in a glass-bottom petri dish (Mattek) and incubated at 37° C. to initiate degradation as described elsewhere (see, e.g., Gandhi et al., 2018 Acta Biomater., 67:134-46). Fibrin gel thickness was monitored over time by imaging with an Envisu R2110 (Leica; Wetzlar, Germany) optical coherence tomograph (OCT) and quantified using the caliper tool within the accompanying InVivoVue software (Leica). Gel thickness was continually measured every 10 minutes until no physical evidence of the insoluble gel remained. The thickness of a gel was measured at 3 different locations (left, middle, right) on each cross-section. The measure at each location was normalized to its initial value and then averaged.
Fibrin gels produced using PBS, TB, or EB with a geometry of 1.5 mm wide×5.0 mm long×0.2 mm thick were generated. Gels were hydrated in PBS prior to incubation in a solution of tissue plasminogen activator (tPA) and plasminogen (P) at 37° C. […]

Regarding `Cc1cc(-c2ccc(/N=N/c3c(S(=O)(=O)O)cc4cc(S(=O)(=O)O)cc(N)c4c3O)c(C)c2)ccc1/N=N/c1c(S(=O)(=O)O)cc2cc(S(=O)(=O)O)cc(N)c2c1O` [TB, Trypan Blue], the degradation time amounted to 33 ± 18 min.
On to `Cc1cc(-c2ccc(/N=N/c3ccc4c(S(=O)(=O)O)cc(S(=O)(=O)O)c(N)c4c3O)c(C)c2)ccc1/N=N/c1ccc2c(S(=O)(=O)O)cc(S(=O)(=O)O)c(N)c2c1O` [EB, Evans Blue], for which the degradation time is 78 ± 37 min.
